Earlier results in US7288559B2, “Carboxamide spirohydantoin CGRP receptor antagonists” (Merck + Co, Inc., priority 2003, dated 2007).
No end group written: not given here.

Columns and labels:
marmoset = details: electrical stimulation of the trigeminal ganglion
rats = details: electrical stimulation of the dura mater, prior administration
rat = details: trigeminal ganglion stimulation

Compound	effect on increase in facial blood flow (marmoset)	effect on increase of middle meningeal artery diameter (rats)	effect on increased facial blood flow (rat)
NCCCC[C@H](NC(=O)[C@@H](Cc1cc(Br)c(O)c(Br)c1)NC(=O)N1CCC(N2Cc3ccccc3NC2=O)CC1)C(=O)N1CCN(c2ccncc2)CC1 [BIBN4096BS]	blocked		
CGRP(8-37): a peptide CGRP antagonist (VTHRLAGLLSRSGGVVKNNFVPTNVGSKAF; ends and bridges not checked; UniProt P06881 90-119, looked up, fragment)		blocked	inhibited
